# PubChem BioAssay (NCI)
#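 96-well plates; 48 h exposure; 5 concentrations. Endpoints by linear interpolation between flanking doses. Not reached: highest tested concentration assigned. Here, GI50 denotes the concentration required for 50% inhibition of growth. TGI is the concentration that stops growth completely.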
# What was measured:
# Assay in all cases: DTP human tumour cell line panel, 48 h
# [1] = tested on: CCRF-CEM leukemia
# [2] = tested on: BT-549 breast
# [3] = tested on: DU-145 prostate
# [4] = tested on: HCT-116 colon
# [5] = tested on: NCI-H460 lung
# [6] = tested on: RPMI-8226 leukemia
# [7] = tested on: T-47D breast
# [8] = tested on: MDA-MB-231 breast
# [9] = tested on: EKVX NSCLC
# [10] = tested on: SF-295 CNS
# [11] = tested on: U251 CNS
# [12] = tested on: MCF7 breast
# [13] = tested on: OVCAR-8 ovarian
# [14] = tested on: OVCAR-4 ovarian
# [15] = tested on: HT29 colon
# [16] = tested on: PC-3 prostate
# [17] = tested on: CAKI-1 renal
# [18] = tested on: A549 NSCLC
# [19] = tested on: HOP-62 NSCLC
# [20] = tested on: OVCAR-3 ovarian
# [21] = tested on: UACC-62 melanoma
# [22] = tested on: NCI/ADR-RES ovarian
# [23] = tested on: M14 melanoma
# [24] = tested on: K-562 leukemia
# [25] = tested on: RXF 393 renal
# [26] = tested on: SF-268 CNS
# [27] = tested on: UACC-257 melanoma
# [28] = tested on: NCI-H226 lung
# [29] = tested on: NCI-H23 lung
# [30] = tested on: SNB-75 CNS
# [31] = tested on: SK-OV-3 ovarian
# [32] = tested on: A498 renal
# [33] = tested on: LOX IMVI melanoma
# [34] = tested on: COLO 205 colon
# [35] = tested on: SW-620 colon
# [36] = tested on: HCC-2998 colon
# [37] = tested on: MDA-MB-435
# [38] = tested on: SNB-19 CNS
# [39] = tested on: SN12C renal
# [40] = tested on: SK-MEL-2 melanoma
# [41] = tested on: IGROV1 ovarian
# [42] = tested on: OVCAR-5 ovarian
# [43] = tested on: SK-MEL-28 melanoma
# [44] = tested on: SK-MEL-5 melanoma
# [45] = tested on: HS 578T breast
# [46] = tested on: 786-0 renal
# [47] = tested on: SF-539 CNS
# [48] = tested on: HCT-15 colon
# [49] = tested on: HOP-92 NSCLC
# [50] = tested on: MOLT-4 leukemia
# [51] = tested on: TK-10 renal
# [52] = tested on: MALME-3M melanoma
# [53] = tested on: HL-60(TB) leukemia
# [54] = tested on: UO-31 renal
# [55] = tested on: KM12 colon
# [56] = tested on: ACHN renal
# [57] = tested on: SR leukemia
# [58] = tested on: NCI-H522 lung
structure (smiles),measurement,setting,value
N#Cc1c(N)nc(N2CCOCC2)c(C#N)c1-c1ccc(Cl)cc1,GI50,[1],34.5 µM
same,TGI,[1],> 100 µM
same,GI50,[2],32 µM
same,TGI,[2],> 100 µM
same,GI50,[3],75 µM
same,TGI,[3],> 100 µM
same,GI50,[4],65.1 µM
same,TGI,[4],> 100 µM
same,GI50,[5],33.2 µM
same,TGI,[5],> 100 µM
same,GI50,[6],26.5 µM
same,TGI,[6],> 100 µM
same,GI50,[7],16.1 µM
same,TGI,[7],> 100 µM
same,GI50,[8],17.5 µM
same,TGI,[8],90.9 µM
same,GI50,[9],22.5 µM
same,TGI,[9],> 100 µM
same,GI50,[10],44.8 µM
same,TGI,[10],> 100 µM
same,GI50,[11],38.3 µM
same,TGI,[11],> 100 µM
same,GI50,[12],23.2 µM
same,TGI,[12],> 100 µM
same,GI50,[13],28 µM
same,TGI,[13],> 100 µM
same,GI50,[14],29.8 µM
same,TGI,[14],> 100 µM
same,GI50,[15],43.3 µM
same,TGI,[15],> 100 µM
same,GI50,[16],16.6 µM
same,TGI,[16],70.1 µM
same,GI50,[17],26 µM
same,TGI,[17],97.1 µM
same,GI50,[18],42.6 µM
same,TGI,[18],> 100 µM
same,GI50,[19],> 100 µM
same,TGI,[19],> 100 µM
same,GI50,[20],27.8 µM
same,TGI,[20],> 100 µM
same,GI50,[21],23 µM
same,TGI,[21],> 100 µM
same,GI50,[22],23.6 µM
same,TGI,[22],76.2 µM
same,GI50,[23],44.6 µM
same,TGI,[23],> 100 µM
same,GI50,[24],> 100 µM
same,TGI,[24],> 100 µM
same,GI50,[25],0.475 µM
same,TGI,[25],45.1 µM
same,GI50,[26],61.7 µM
same,TGI,[26],> 100 µM
same,GI50,[27],40.8 µM
same,TGI,[27],> 100 µM
same,GI50,[28],50.4 µM
same,TGI,[28],> 100 µM
same,GI50,[29],73.5 µM
same,TGI,[29],> 100 µM
same,GI50,[30],14.5 µM
same,TGI,[30],55.9 µM
same,GI50,[31],47.2 µM
same,TGI,[31],> 100 µM
same,GI50,[32],8.11 µM
same,TGI,[32],36.3 µM
same,GI50,[33],29.2 µM
same,TGI,[33],> 100 µM
same,GI50,[34],48.5 µM
same,TGI,[34],> 100 µM
same,GI50,[35],> 100 µM
same,TGI,[35],> 100 µM
same,GI50,[36],21.7 µM
same,TGI,[36],99.2 µM
same,GI50,[37],65.3 µM
same,TGI,[37],> 100 µM
same,GI50,[38],28.1 µM
same,TGI,[38],> 100 µM
same,GI50,[39],50.9 µM
same,TGI,[39],> 100 µM
same,GI50,[40],18.1 µM
same,TGI,[40],56.2 µM
same,GI50,[41],14 µM
same,TGI,[41],46.4 µM
same,GI50,[42],80.4 µM
same,TGI,[42],> 100 µM
same,GI50,[43],70.9 µM
same,TGI,[43],> 100 µM
same,GI50,[44],27.4 µM
same,TGI,[44],> 100 µM
same,GI50,[45],40.6 µM
same,TGI,[45],> 100 µM
same,GI50,[46],70.7 µM
same,TGI,[46],> 100 µM
same,GI50,[47],49 µM
same,TGI,[47],> 100 µM
same,GI50,[48],26.9 µM
same,TGI,[48],> 100 µM
same,GI50,[49],9 µM
same,TGI,[49],78.4 µM
same,GI50,[50],43.7 µM
same,TGI,[50],> 100 µM
O=C1c2cc3c(cc2CC12Cc1cc4c(cc1C2=O)CCC4)CCC3,TGI,[1],> 100 µM
same,TGI,[2],> 100 µM
same,TGI,[3],> 100 µM
same,TGI,[51],> 100 µM
same,TGI,[4],> 100 µM
same,TGI,[5],> 100 µM
same,TGI,[6],> 100 µM
same,TGI,[7],> 100 µM
same,TGI,[8],> 100 µM
same,TGI,[9],> 100 µM
same,TGI,[10],> 100 µM
same,TGI,[11],> 100 µM
same,TGI,[12],> 100 µM
same,TGI,[13],> 100 µM
same,TGI,[15],> 100 µM
same,TGI,[16],> 100 µM
same,TGI,[17],> 100 µM
same,TGI,[18],> 100 µM
same,TGI,[19],> 100 µM
same,TGI,[20],> 100 µM
same,TGI,[21],> 100 µM
same,TGI,[22],> 100 µM
same,TGI,[23],> 100 µM
same,TGI,[52],> 100 µM
same,TGI,[24],> 100 µM
same,TGI,[25],> 100 µM
same,TGI,[53],> 100 µM
same,TGI,[54],> 100 µM
same,TGI,[26],> 100 µM
same,TGI,[27],> 100 µM
same,TGI,[28],> 100 µM
same,TGI,[29],> 100 µM
same,TGI,[55],> 100 µM
same,TGI,[30],> 100 µM
same,TGI,[31],> 100 µM
same,TGI,[32],> 100 µM
same,TGI,[33],> 100 µM
same,TGI,[34],> 100 µM
same,TGI,[35],> 100 µM
same,TGI,[36],> 100 µM
same,TGI,[37],> 100 µM
same,TGI,[56],> 100 µM
same,TGI,[38],> 100 µM
same,TGI,[39],> 100 µM
same,TGI,[40],> 100 µM
same,TGI,[41],> 100 µM
same,TGI,[42],> 100 µM
same,TGI,[43],> 100 µM
same,TGI,[57],> 100 µM
same,TGI,[44],> 100 µM
same,TGI,[45],> 100 µM
same,TGI,[46],> 100 µM
same,TGI,[47],> 100 µM
same,TGI,[48],> 100 µM
same,TGI,[50],> 100 µM
same,TGI,[58],> 100 µM
